Test results: patent US4740501A (priority 1985, dated 1988)
“And” between values parts separate entries of the source, which are not always exact repeats. Equal entries are not always repeated.

Columns and labels:
[1] = test system: P HR-1 B-lymphoma; test: Tumor cell survival (trypan blue), continuous exposure; format: cell-based, Human
[2] = test system: B-16 melanoma cells; test: Tumor cell survival after pulse treatment; format: cell-based, Mouse; conditions: for Percent Tumor Cell Survival: viability 24 hr later
Experimental: (§1) MJY-alpha mammary tumor cell layers were initiated at 2×10^5 cells/2 cm^2 well (Nuncion Multidish 4, Vangard International, Neptune, NJ) using cells spontaneously released into the medium from confluent 6-8 day old cell layers. B-16 melanoma cells obtained from 4-day-old cell confluent cultures by trypsinization with STV were plated at 2.2×10^5 cells/cm^2 well. These seeding densities yielded lightly confluent layers (2.3-2.6×10^5 cell/cm^2). following treatment the layers were rinsed twice and reincubated with growth media: media were changed daily until the cultures were terminated.
(§2) Survival of tumor cell layers or suspensions was ascertained using 0.5% trypan blue in 0.1M phosphate-buffered saline, pH 7.25. Cell layers were released from the Multidish-4 wells with 0.5 ml STV, diluted 2 to 10 fold with the vital strain; tumor cells in suspension cultures were directly mixed 1:1 with the trypan blue dye. Tumor cells were enumerated using a haemocytometer; all 10 fields were counted for every sample. Percent viable cells was determined by direct comparison of the numbers of cells excluding trypan blue in treated cultures to those in untreated or diluent-treated parallel cultures. There were no significant differences in the viability of cells treated with diluent when compared to untreated cells.
(§3) To delineate the minimum concentration and duration of the tripeptide compound exposure to induce cytolysis, MJY-alpha and B-16 melanoma cell layers and L-1210 leukemia cell suspensions were exposed to 0.5 to 50 ug of the tripeptide compound per ml of solvent for 0.25 to 4 hours. The tripeptide compound was then removed and the cells washed and reincubated in media growth. Tumor cell viability was determined 24 hrs after pulse tripeptide compound exposure. Cell survival of all three tumor cell lines was reduced by an exposure period of as short as 15 min (Table 4). The degree of cytolysis increased with extension of the treatment periods from 15 min to 4 hrs, although the decreases in cell survival were not proportional to the duration of the exposure. […] Comparison of the data in Tables 2 and 4 reveal that cells exposed to the tripeptide compound for one hour were irreversibly damaged when assayed a day later despite their apparent viability immediately after treatment.
(§4) The reversibility of the cancericidal activity of the tripeptide compounds on L-1210 leukemia, MJY-alpha mammary tumor and B-16 melanoma cells was also monitored in the nonhostile tissue culture environment. Cell suspensions of these tumor models were treated with tripeptide for 15 to 240 min, washed and either inoculated into mice or maintained as suspension (L-1210) or monolayer cultures (MJY-alpha and B-16). Reductions in tumor cells survival were negligible (0-6%) in all three tumor systems at initiation of in vitro cultures following treatment with 50 ug tripeptide/ml for as long as 4 hrs. However, significant decreases in cellular viabilities of L-1210 leukemia (FIG. 9), MJY-alpha mammary tumor (FIG. 10) and B-16 melanoma (FIG. 11) tumor cells were observed 24 hr following tripeptide exposure and for the next 6 days.

[3] = test system: MJY-alpha mammary tumor cells; test: Tumor cell survival after pulse treatment; format: cell-based, Mouse; conditions: for Percent Tumor Cell Survival: viability 24 hr later
Experimental: as §1, §2, §3, §4

[4] = test system: C-type virus; test: Monitoring of treated MJY-alpha cells for induction of C-type virus; format: cell-based; conditions: 0.5 to 48 hour pulse or 8 months culture in the tripeptide
Text: The possible multifocal action of this antitumor tripeptide was a concern during examination of this compound. Since virus particles obtained by induction are infectious and oncogenic, PTT.119-treated cells were monitored for the presence of C-type virus. […] In addition, no diminution of the inhibitory effect of PTT.119 or enhancement of B-type retrovirus production was observed under these conditions.

[5] = test system: MMTV polypeptides; format: cell-based, mouse
[6] = test system: MJY-alpha mammary tumor cell layers; test: Morphology of treated cell layers (May-Grunwald-Giemsa); format: cell-based; conditions: 5 and 10 ug/ml for 15 to 60 minutes
Experimental: Confluent MJY-alpha mammery tumor cell layers were treated with […] or diluent for 15 or 60 minutes, washed, and then incubated in growth medium. Representative cell layers were fixed and stained with May-Grunwald-Giemsastain from one (1) to seven (7) days after treatment as specified. Hemicysts or domes which are usually observed in short-term cultures of murine, MMTV-induced mammary tumors are not present in MJY-alpha cultures (FIG. 12a and b). […] Cellular pseudopodia were withdrawn and the cytoplasm appeared condensed around the nuclei (FIG. 12c and d). The most striking feature of exposure to high concentrations of PTT.119 was the ruffling of the plasma membrane and the formation of vesicles and blebs. […] This alteration was closely followed by visible increases in the cytosol volume or rarefaction of the cytoplasm (FIG. 12f). The degree of further pathological alterations of MJY-alpha mammary tumor cells was dependent on the dosage of PTT.119 and included lobulation and fragmentation of the nuclei, and the formation of multinuclear cells (FIG. 12f and h). […] Chromosomal condensation was not inhibited in multinucleated cells or in cells with highly lobulated or fragmented nuclei (FIG. 12h).

[7] = 50 ug/ml for as long as 4 hrs (all three tumor systems)

In the case of `CCOC(=O)[C@H](CCSC)NC(=O)[C@H](Cc1cccc(N(CCCl)CCCl)c1)NC(=O)[C@@H](N)Cc1ccc(F)cc1.Cl` [PTT.119, 3-(p-fluorophenyl)-L-alanyl-3-[m-bis(2-chloroethyl)aminophenyl]-L-alanyl-L-methionine ethyl ester hydrochloride], the “% tumor cell survival” value ([1]; 10 ug/ml, 1 hr) is reported as 96%, the “% tumor cell survival” value ([1]; 10 ug/ml, 4 hr) is reported as 91% and the “% tumor cell survival” value ([1]; 10 ug/ml, 24 hr) is reported as 75%. For the same compound, the “% tumor cell survival” value ([1]; 25 ug/ml, 1 hr) was 92%, the “% tumor cell survival” value ([1]; 25 ug/ml, 4 hr) was 86% and the “% tumor cell survival” value ([1]; 25 ug/ml, 24 hr) was 69%. The “% tumor cell survival” value ([1]; 50 ug/ml, 1 hr) was 93%, the “% tumor cell survival” value ([1]; 50 ug/ml, 4 hr) was 75% and the “% tumor cell survival” value ([1]; 50 ug/ml, 24 hr) was 60%. For the same compound, the “Percent Tumor Cell Survival” value ([2]; 5 ug/ml, pulse 1 hr) was 88%, the “Percent Tumor Cell Survival” value ([2]; 5 ug/ml, pulse 2 hr) was 66% and the “Percent Tumor Cell Survival” value ([2]; 5 ug/ml, pulse 4 hr) was 79%. The “Percent Tumor Cell Survival” value ([2]; 5 ug/ml, pulse .5 hr) was 93%, the “Percent Tumor Cell Survival” value ([2]; 10 ug/ml, pulse 1 hr) was 68% and the “Percent Tumor Cell Survival” value ([2]; 10 ug/ml, pulse 2 hr) was 73%. The “Percent Tumor Cell Survival” value ([2]; 10 ug/ml, pulse 4 hr) was 63%, the “Percent Tumor Cell Survival” value ([2]; 10 ug/ml, pulse .5 hr) was 75% and the “Percent Tumor Cell Survival” value ([2]; 25 ug/ml, pulse 1 hr) was 60%. The “Percent Tumor Cell Survival” value ([2]; 25 ug/ml, pulse 2 hr) was 56%, the “Percent Tumor Cell Survival” value ([2]; 25 ug/ml, pulse 4 hr) was 52% and the “Percent Tumor Cell Survival” value ([2]; 25 ug/ml, pulse .25 hr) was 82%. The “Percent Tumor Cell Survival” value ([2]; 25 ug/ml, pulse .5 hr) was 67%, the “reductions in tumor cell survival at initiation of in vitro cultures” value [2, 7] was 0-6% and the “Percent Tumor Cell Survival” value ([2]; 50 ug/ml, pulse 1 hr) was 48%. For the same compound, the “Percent Tumor Cell Survival” value ([2]; 50 ug/ml, pulse .25 hr) was 65%, the “Percent Tumor Cell Survival” value ([2]; 50 ug/ml, pulse .5 hr) was 62% and the “Percent Tumor Cell Survival” value ([3]; 5 ug/ml, pulse 1 hr) was 89%. For the same compound, the “Percent Tumor Cell Survival” value ([3]; 5 ug/ml, pulse 2 hr) was 77%, the “Percent Tumor Cell Survival” value ([3]; 5 ug/ml, pulse 4 hr) was 76% and the “Percent Tumor Cell Survival” value ([3]; 5 ug/ml, pulse .5 hr) was 94%. The “Percent Tumor Cell Survival” value ([3]; 10 ug/ml, pulse 1 hr) was 70%, the “Percent Tumor Cell Survival” value ([3]; 10 ug/ml, pulse 2 hr) was 64% and the “Percent Tumor Cell Survival” value ([3]; 10 ug/ml, pulse 4 hr) was 48%. The “Percent Tumor Cell Survival” value ([3]; 10 ug/ml, pulse .25 hr) was 68%, the “Percent Tumor Cell Survival” value ([3]; 10 ug/ml, pulse .5 hr) was 67% and the “Percent Tumor Cell Survival” value ([3]; 25 ug/ml, pulse 1 hr) was 51%. For the same compound, the “Percent Tumor Cell Survival” value ([3]; 25 ug/ml, pulse 2 hr) was 46%, the “Percent Tumor Cell Survival” value ([3]; 25 ug/ml, pulse 4 hr) was 44% and the “Percent Tumor Cell Survival” value ([3]; 25 ug/ml, pulse .25 hr) was 61%. For the same compound, the “Percent Tumor Cell Survival” value ([3]; 25 ug/ml, pulse .5 hr) was 37%, the “reductions in tumor cell survival at initiation of in vitro cultures” value [3, 7] was 0-6% and the “Percent Tumor Cell Survival” value ([3]; 50 ug/ml, pulse 1 hr) was 41%. For the same compound, the “Percent Tumor Cell Survival” value ([3]; 50 ug/ml, pulse .25 hr) was 45%, the “Percent Tumor Cell Survival” value ([3]; 50 ug/ml, pulse .5 hr) was 32% and the “endogenous (C-type) virus production” value [4] was “no detection of any endogenous virus production”. For the same compound, the “decrease of level of p24 compared to virions from solvent cultures” value [5] was 36%, the “level of nonglycosylated protein p24 in MMTV particles” value [5] was “substantial decreases” and the “level of p24 protein in the virion core” value [5] was “diminution”. For the same compound, the “reduction in p24” value [5] was 71%, the “relative level of p24 compared to control” value [5] was 35-40% and the “relative contribution of p24 in the virions, % of control level” value ([5]; hydrochloride) was 54% and 74% and 65%. The “appearance of cell layers” value [6] was “appeared unchanged”.
